The results in this text go back to US8314082B2, “Stilbene derivatives for ADP-ribosyl cyclase inhibitors” (Industrial Cooperation Foundation Chonbuk National …, priority 2006, dated 2012).

Type in all cases: cell-based
The test system of assay [1] is Ang II induced [Ca^2+]i increase in murine mesangial cells (MMCs). In words: Ang II-mediated [Ca2+]i increase in MMCs. The note with it: Mus musculus, Mesangial cell. The protocol: Changes in [Ca^2+]i in MMCs were determined as described previously [Kim et al., Exp. Mol. Med. (2006)38:535-45]. Briefly, MMCs cultured on confocal dishes for 48 h at a concentration of 10^4 cells/dish were washed with Hank's balanced salt solution (HBSS) (2 mM CaCl2, 145 mM NaCl, 5 mM KCl, 1 mM MgCl2, 5 mM D-glucose, and 20 mM HEPES, pH 7.3) and then loaded with […] Fluo 3-AM (Molecular Probe, Eugene, Oreg.). Changes in Ca^2+ fluorescence were determined at 488 nm/530 nm (excitation/emission) by air-cooled argon laser system. [Ca^2+]i was calculated using a Kd of 325 nM for Fluo 3-AM by the method of Tsien et al. (1982).

Assay [2] deals with Ang II induced cADPR production in murine mesangial cells (MMCs). In words: Ang II-induced intracellular cADPR concentration in MMCs. The note with it: for IC50: Mus musculus, Mesangial cell, cADPR production induced by 150 nM Ang II, 90 s, MMCs, read-out: IC50([CADPR]i, uM) (means ± SEM). The protocol: [cADPR]i was measured using a cyclic enzymatic assay as described previously [Graeff et al., Biochem. J. (2002)361:379-84]. Aplysia californica ADPR-cyclase was purified from […] according to the method described [Lee et al., Cell Regul. (1991)2:203-9]. Briefly, MMCs were treated with 0.3 ml of 0.6 M perchloric acid under sonication after Ang II treatment. Precipitates were removed by centrifugation at 20,000×g for 10 min. Perchloric acid was removed by mixing the aqueous sample with a solution containing 3 volumes of 1,1,2-trichlorotrifluoroethane to 1 volume of tri-n-octlyamine. After centrifugation for 10 min at 1500×g, the aqueous layer was collected and neutralized with 20 mM sodium phosphate (pH 8). To remove all contaminating nucleotides, the samples were incubated with the following hydrolytic enzymes overnight at 37° C.: 0.44 unit/ml nucleotide pyrophosphatase, 12.5 units/ml alkaline phosphatase, 0.0625 unit/ml NADase, and 2.5 mM MgCl2 in 20 mM sodium phosphate buffer (pH 8.0). Enzymes were removed by filtration using Centricon-3 filters. To convert cADPR to NAD^+, the samples (0.1 ml/tube) were incubated with […] of a cycling reagent containing 0.3 mg/ml Aplysia ADPR-cyclase, 30 mM nicotinamide, and 100 mM sodium phosphate (pH 8) at room temperature for 30 min. The samples were further incubated with the cycling reagent (0.1 ml) containing 2% ethanol, […] alcohol dehydrogenase, 20 mM resazurin, 10 mg/ml diaphorase, 10 mM riboflavin 5′-phosphate, 10 mM nicotinamide, 0.1 mg/ml BSA, and 100 mM sodium phosphate (pH 8.0) for 2 h at room temperature. An increase in the resorufin fluorescence was measured at 544 nm excitation and 590 nm emission using a fluorescence plate reader (Molecular Devices Corp., Spectra-Max GEMINI). Various known concentrations of cADPR were also included in the cycling reaction to generate a standard curve. […] Production of cADPR as well as later sustained Ca^2+ signal in response to Ang II was inhibited with different efficacy by these small molecules (Table 1). […] The order of IC50 was 4,4′-DAHB>resveratrol>azobenzene=piceatannol>2,2′-DAHB.

For assay [3], the system named is OKT3 induced [Ca^2+]i increase in Jurkat T cells. The assay is described as follows: OKT3-mediated [Ca2+]i increase in Jurkat T cells. The note with it: pretreatment, even at 10 mM; OKT3 5 mg/ml. The protocol:
Changes in [Ca^2+]i in Jurkat T cells were determined as described above examples 1.

Assay [4] concerns OKT3 induced cADPR production in Jurkat T cells. In words: OKT3-induced [cADPR]i in Jurkat T cells. To be noted: pretreatment. The protocol:
[cADPR]i was measured using a cyclic enzymatic assay as described previously [Graeff et al., Biochem. J. (2002)361:379-84]. Aplysia californica ADPR-cyclase was purified from […] according to the method described [Lee et al., Cell Regul. (1991)2:203-9]. Briefly, MMCs were treated with 0.3 ml of 0.6 M perchloric acid under sonication after Ang II treatment. Precipitates were removed by centrifugation at 20,000×g for 10 min. […] After centrifugation for 10 min at 1500×g, the aqueous layer was collected and neutralized with 20 mM sodium phosphate (pH 8). To remove all contaminating nucleotides, the samples were incubated with the following hydrolytic enzymes overnight at 37° C.: 0.44 unit/ml nucleotide pyrophosphatase, 12.5 units/ml alkaline phosphatase, 0.0625 unit/ml NADase, and 2.5 mM MgCl2 in 20 mM sodium phosphate buffer (pH 8.0). Enzymes were removed by filtration using Centricon-3 filters. […] An increase in the resorufin fluorescence was measured at 544 nm excitation and 590 nm emission using a fluorescence plate reader (Molecular Devices Corp., Spectra-Max GEMINI). […] Measurement of [cADPR]i in Jurkat T cells were determined as described above examples 5.

Setting [5] is: later sustained Ca2+ signal induced by 150 nM Ang II, 300 s, read-out: IC50([Ca^2+]i, uM) (means ± SEM).

Each structure is given as a SMILES string. Read-outs that look alike come from different tables or passages of the source.

As usually defined, the IC50 is the concentration at which inhibition is half-maximal. Turning to `Oc1ccccc1/N=N/c1ccccc1O` [2,2′-DHAB, 2,2′-Dihydroxyazobenzene], the half-inhibitory concentration (IC50) in assay [1] (setting [5]) worked out at 15 ± 1.5 µM; in assay [2], 16.5 ± 2.5 µM. In assay [3], the “effect on OKT3-mediated Ca2+ rise” value is listed as “did not show any effects”. In addition, the “effect on OKT3-mediated [cADPR]i” value in assay [4] is “didn't inhibited”.

Consider `Oc1ccc(N=Nc2ccc(O)cc2)cc1` [4,4′-DHAB, 4,4′-Dihydroxyazobenzene], for which the IC50 is approximately 0.0025 µM in assay [1] (Ang II, pretreatment, read-out: IC50 for block of the sustained Ca2+ signal); 0.0025 ± 0.0002 µM in assay [1] (setting [5]); 0.0025 ± 0.0003 µM in assay [2]. The “concentration at which cADPR production stimulated by Ang II is inhibited” value in assay [2] (MMC) turned out to be 5 nM. The “effect on OKT3-mediated Ca2+ rise” value in assay [3] is “did not show any effects”. In addition, the “effect on OKT3-mediated [cADPR]i” value in assay [4] is recorded as “didn't inhibited”.
